Reference: patent publication US8309790B2, “Animal models for demyelination disorders” (University of Chicago, priority 2005, dated 2012)

What was measured:
[1] = tested on: Hippocampal organotypic cultures; experiment: Hippocampal organotypic cultures (HOC), in vitro model of myelination, MBP Western blot; type: cell-based; settings: 7 days of 100 U/ml IFN-γ exposure
Description: Our hypothesis is that the integrated stress response has the potential to protect oligodendrocytes from the harmful effects of the inflammatory response in patients with multiple sclerosis (MS). […] To test whether agents that prolong eIF2α phosphorylation might provide protection to oligodendrocytes against detrimental inflammatory factors, the effect of Salubrinol (Sal) in the presence of the immune cytokine IFN-γ was tested in an in vitro model of myelination.
HOCs, were prepared and maintained as described previously (Kunkler and Kraig (1997) J Cereb Blood Flow Metab. 17:26-43), and were maintained in vitro for 7 days before use. SAL at various concentrations was combined with 100 U/ml IFN-γ and added to the HOC cultures for 7 days. […] After 7 days of 100 U/ml IFN-γ exposure, the levels of MBP decreased approximately 80% in the HOCs (FIG. 29).

[2] = tested on: corpus callosum of GFAP/tTA; TRE/IFN-γ; PERK+/− mice; experiment: Remyelination after cuprizone in double transgenic mice on PERK+/+ or PERK+/− background; type: in vivo; settings: for remyelinated axons: 9 weeks
Text: The involvement of the ER stress response in the reduction caused by IFN-γ to remyelinate lesions was examined in transgenic mice that were generated to be heterozygous for a loss of function mutation in pancreatic ER kinase (PERK) (Harding, et al., (2001) Mol Cell 7:1153-1163), and to be temporally regulated for expressing INF-γ in the CNS. TRE/IFN-γ mice were first crossed with PERK+/− mice (Harding, et al. (2001) Mol. Cell 7: 1153-1163) on the C57BL/6 background to generate mice the carry the PERK mutation, and the resulting progeny were crossed to GFAP/tTA mice to obtain transgenic mice that were heterozygous for the PERK mutation. The effect of PERK on remyelination in the presence or absence of INF-γ was evaluated as evaluated as a function of the level of myelination of oligodendrocytes in remyelinating lesions and the number of oligodendrocytes present in the remyelinating lesion.
The extent of remyelination was assessed as described in the previous examples in the corpus callosum of PERK+/+ and PERK+/− mice that were made to express INF-γ (DOX− PERK+/+ and DOX− PERK+/−), and in mice in which the expression of INF-γ was repressed (DOX+ PERK+/+ and DOX+ PERK+/−). Remyelination was determined by electron microscopy, and was related to the number of CC1 positive oligodendrocytes and the level of caspase-3 expression in the corpus callosum of all animals. The level of caspase-3 was determined by immunohistochemical methods using anti capsase antibody (active-casoase-3 antibody, 1:50; Cel Signaling Technology) and according to the method described in Example 1. Demyelination was induced in six-week-old GFAP/tTA; TRE/IFN-γ double transgenic mice on a PERK+/− background that had been maintained on doxycycline, by simultaneously treating the mice with 0.2% cuprizone and releasing them from doxycycline (DOX− PERK+/−). Remyelination was allowed to occur by withdrawing cuprizone at week 6.

[3] = tested on: ER stress markers BIP, CHOP, p-eIF-2α; experiment: ER stress markers in the corpus callosum of cuprizone treated mice expressing IFN-γ; type: in vivo
Description: Repression of remyelination by IFN-γ is associated with ER stress. […] To determine whether IFN-γ interferes with endoplasmic reticulum (ER) function in remyelinating oligodendrocytes, the expression of ER stress markers was monitored in the corpus callosum of mice expressing IFN-γ. The study was performed using the transgenic mice described in Example 1.
The level of mRNA encoding ER stress associated genes binding immunoglobulin protein/78 KDa glucose regulated protein (BIP/GRP78) and the CAATT enhancer-binding protein homologous protein/growth and DNA damage protein 153 (CHOP/GADD153), was determined using real time PCR, as described in Example 1 in the corpus callosum of the cuprizone treated mice of Example 1. The probes, sense and antisense primers that were used were: […]
The level of phosphorylated eIF-2α, which inhibits nucleotide exchange on the eIF-2 complex and attenuates most protein synthesis, was analyzed by Western blot, and the expression was colocalized by immunostaining CC1 antibodies as described above. Western blot analysis was performed as follows. The corpus callosum from 3 mice was rinsed in ice cold phosphate-buffered saline (PBS) and pooled, and immediately homogenized in 5 volumes of Triton X-100 buffer (20 mM HEPES pH 7.5, 150 mM NaCl, 1% Triton X-100, 10% glycerol, 1 mM EDTA, 10 mM tetrasodium pyrophosphate, 100 mM NaF, 17.5 mM β-glycerophosphate, 10 mM phenylmethylsulfonyl fluoride, 15 μg/ml aprotonin, and 6 μg/ml pepstatin A) using a motorized homogenizer. After incubation on ice for 15 min, the extracts were cleared by centrifugation at 14,000 rpm twice for 30 min each. The protein content of each extract was determined by protein assay (Bio-Rad). The extracts (40 μg) were separated by sodium dodecyl sulfate-polyacrylamide gel electrophoresis and transferred to nitrocellulose. […] The following primary antibodies were used: anti-eIF-2α (1:500; Santa Cruz, Santa Cruz, Calif.), anti-p-eIF-2α (1:1000, Cell signaling Technology), anti-CHOP (1:500; Santa Cruz) and anti-actin (1:1000; Sigma, St Louis, Mo.).

[4] = corpus callosum of DOX− mice, Western blot

Substance: interferon-γ [IFN-γ]
- decrease of the levels of MBP [1]: approximately 80%
- remyelinated axons ([2]; DOX− PERK+/+ mice): 31.1%±7.6%
- number of CC1 positive oligodendrocytes ([2]; DOX− PERK+/+ mice, corpus callosum, week 9): 123.2±27.5 /0.04 mm^2
- remyelinated axons ([2]; DOX− PERK+/− mice, 3 weeks after cuprizone removed): 15.6%±7.6%
- CC1 positive oligodendrocytes in the corpus callosum ([2]; DOX− PERK+/− mice, week 9): only a few oligodendrocytes were detected
- number of oligodendrocytes positive for caspase-3, DOX− PERK+/− relative to DOX− PERK+/+ ([2]; week 9): 2.3 times
- level of CHOP protein [3, 4]: approximately 1.7 fold
- level of phosphorylated eIF-2α (p-eIF-2α) [3, 4]: approximately 1.8 fold
- level of mRNA for BIP and CHOP ([3]; corpus callosum, DOX− compared to control DOX+, real time PCR): approximately 2 fold
